Laboratory results taken from patent US20130040882A1, “USE OF FIBROBLAST GROWTH FACTOR FRAGMENTS” (NOVARTIS AG, priority 2003, published 2013).
“Also recorded” adds a separate entry of the source.

Columns and labels:
[1] = test system: gene expression in organs; test: Blind monkey trial of three peptides: gene expression profiling of organs on Affymetrix U95 chips; assay type: in vivo, cynomolgus monkeys; conditions: 100 μg/animal/day sc, two weeks
[2] = test system: luteinising hormone and follicle-stimulating hormone genes in the pituitary gland; test: Gene expression (HGU133A) in the pituitary gland of ovariectomized monkeys treated with estradiol, tamoxifen or raloxifene; assay type: in vivo, cynomolgus monkeys (Macaca fascicularis); conditions: OVX monkeys
Method: Female sexually mature cynomolgus monkeys (Macaca fascicularis obtained from R. C. Hartelust B V, Tilburg, the Netherlands) approximately 48 months old were subjected to surgery (ovarectomy [OVX] or sham) 10 weeks prior to treatment and were treated for parasitic arthropods and helminthes, subjected to a tuberculin testing, and acclimated to the treatment facility for at least 14 days before beginning treatment.
Surgical Procedures. The ovariectomized cynomolgus monkey (Macaca fascicularis), which has been validated as a useful model predictive of outcomes in human clinical trials of estrogen and SERMs (Cline J M et al., Toxicol Pathol. 29:84-90 (2001)), was used as a model of estrogen deficiency. Animals were ovariectomized approximately 10 weeks before the first day of treatment. The ovaries were removed following anesthesia with a combined intramuscular injection of xylazine (Rompun®: 0.4 mL/animal, Bayer Pharma Division Sante Animale, Puteaux, France) and ketamine hydrochloride (Imalgéne®: 0.6 mL/kg, Mérial, Lyon, France). Sham-operated animals were subjected to the same surgical procedure, except for the removal of ovaries.
Ovariectomized and sham-operated animals were divided into groups of 4 and treated as outlined below.
Gene expression was determined in the pituitary and uterus at the end of drug therapy. Tissues to be analyzed (pituitary glands and uterus) were excised, snap frozen in liquid nitrogen, and stored at −80° C. until RNA extraction was performed.
Total RNA was obtained by acid guanidinium isothiocyanate-phenol-chloroform extraction (Trizol; Invitrogen Life Technologies, San Diego, Calif., USA) and purified on an affinity resin column (RNeasy; Qiagen, Hilden, Germany) according to manufacturer instructions. […] Lockhart D J, Dong H, Byrne M C, et al. Nat. Biotechnol. 1996; 14:1675-1680.
Previous studies have proven the validity of cross-species DNA chip analysis (Hacia J G et al. Nat Genet. 18:155-158 (1998)), therefore, the human gene expression probe arrays HGU133A (Affymetrix, Santa Clara, Calif., USA) containing 22,283 probe sets interrogating primarily annotated human genes were used. One GeneChip was used per tissue, per animal. The resulting image files (.dat files) were processed using the Microarray Analysis Suite 5 (MAS5) software (Affymetrix, Inc.). Tab-delimited files were obtained containing data regarding signal intensity (Signal) and categorical expression level measurement (Absolute Call).

uterine gene expression = test: Gene expression profiling (HGU133A) in the uterus of ovariectomized monkeys treated with estradiol, tamoxifen or raloxifene; assay type: in vivo, cynomolgus monkeys (Macaca fascicularis)
[3] = compared with untreated OVX controls

Peptide 3: leukemia inhibitory factor
Conclusions of the in vivo Profiling by the Data Mining Team: Function/Pathway [1]: Ca^++ bone metabolism; also recorded: Inflammation; also recorded: Immunosuppression; also recorded: Vascular differentiation
Findings by the Data Mining Team: Skeletal muscle (gene with direction) [1]: JunB and haptoglobin and phospholipase A2 typeIIA+

C[C@]12CC[C@@H]3c4ccc(O)cc4CC[C@H]3[C@@H]1CC[C@@H]2O [estradiol]
Decrease of FSH transcripts in the pituitary gland [2]: 73.4 fold
Decrease of LH transcripts in the pituitary gland [2]: 16.4 fold
Uterine expression increase: transport genes (uterine gene expression): 2-7 fold
Uterine expression downregulation: thioredoxin interacting protein (uterine gene expression; compared with OVX control): 3 fold
Uterine expression increase: Collagen type 1 alpha 2 (uterine gene expression; compared with OVX controls): 13.2 fold
Uterine expression increase: cell cycle proteins (CDC28 protein kinase regulatory subunit 2) (uterine gene expression; compared with OVX controls): up to 4 fold
Uterine expression increase: collagen type 1 alpha1 (uterine gene expression; compared with OVX controls): 6.6 fold
Uterine expression increase: collagen type III alpha 1 (uterine gene expression; compared with OVX controls): 6.8 fold
Uterine expression increase: collagen type IV alpha 1 (uterine gene expression; compared with OVX controls): 4.3 fold
Uterine expression increase: cysteine-rich angiogenic inducer 61 (uterine gene expression; compared with OVX controls): 3.5 fold
Uterine expression increase: insulin-like GF binding protein 2 (36 kDa) (uterine gene expression; compared with OVX controls): 7.1 fold
Uterine expression increase: insulin-like growth factor binding protein 5 (uterine gene expression; compared with OVX controls): 5.2 fold
Uterine expression increase: latent transforming growth factor beta binding protein 1 (uterine gene expression; compared with OVX controls): 3.6 fold
Uterine expression increase: Dishevelled associated activator of morphogenesis 1 (uterine gene expression; [3]): 3.1 fold
Uterine expression increase: integrin (beta 5) (uterine gene expression; [3]): 1.7 fold
Uterine expression increase: progesterone receptor (uterine gene expression; [3]): 9.8 fold
Uterine expression increase: secreted frizzled-related protein 1 (uterine gene expression; [3]): 7.1 fold
Uterine expression increase: secreted frizzled-related protein 4 (uterine gene expression; [3]): 4.2 fold
Uterine expression increase: wingless-type MMTV integration site (family, member 2B; wnt2B) (uterine gene expression; [3]): 2.6 fold

O=C(c1ccc(OCCN2CCCCC2)cc1)c1c(-c2ccc(O)cc2)sc2cc(O)ccc12 [Ralolxifene]
Fold change relative to SHAM control: Cadherin 11, type 2, OB-cadherin (osteoblast) (uterine gene expression; uterus, OVX monkeys): 0.8 fold
Fold change relative to SHAM control: Calcium channel, voltage-dependent, beta 2 subunit (uterine gene expression; uterus, OVX monkeys): 1.5 fold
Fold change relative to SHAM control: Catenin (cadherin-associated protein), alpha-like 1 (uterine gene expression; uterus, OVX monkeys): 1.5 fold
Fold change relative to SHAM control: Dishevelled associated activator of morphogenesis 1 (uterine gene expression; uterus, OVX monkeys): 0.6 fold
Fold change relative to SHAM control: Four and a half LIM domains 2 (uterine gene expression; uterus, OVX monkeys): 0.6 fold
Fold change relative to SHAM control: Integrin, beta 5 (uterine gene expression; uterus, OVX monkeys): 0.9 fold
Fold change relative to SHAM control: LDL receptor adaptor protein (uterine gene expression; uterus, OVX monkeys): 1.4 fold
Fold change relative to SHAM control: LIM and senescent cell antigen-like domains 1 (uterine gene expression; uterus, OVX monkeys): 0.8 fold
Fold change relative to SHAM control: Mitogen-activated protein kinase kinase kinase kinase 4 (uterine gene expression; uterus, OVX monkeys): 1.2 fold
Fold change relative to SHAM control: Phosphatase and tensin homolog (mutated in multiple advanced cancers 1) (uterine gene expression; uterus, OVX monkeys): 0.7 fold
Fold change relative to SHAM control: Phospholipid transfer protein (uterine gene expression; uterus, OVX monkeys): 0.7 fold
Fold change relative to SHAM control: Progesterone receptor (uterine gene expression; uterus, OVX monkeys): 0.6 fold
Fold change relative to SHAM control: Protein tyrosine kinase 9 (uterine gene expression; uterus, OVX monkeys): 0.8 fold
Fold change relative to SHAM control: Secreted frizzled-related protein 1 (uterine gene expression; uterus, OVX monkeys): 0.8 fold
Fold change relative to SHAM control: Secreted frizzled-related protein 4 (uterine gene expression; uterus, OVX monkeys): 0.4 fold
Fold change relative to SHAM control: Wingless-type MMTV integration site family, member 2B (uterine gene expression; uterus, OVX monkeys): 0.8 fold
Fold change relative to SHAM control: Wingless-type MMTV integration site family, member 16 (uterine gene expression; uterus, OVX monkeys): 0.8 fold
Fold change relative to SHAM control: Insulin receptor (uterine gene expression; uterus, OVX monkeys, Table 46): 1.4 fold
